In PMC5428509, “Irreversible inhibition of BTK kinase by a novel highly selective inhibitor CHMFL-BTK-11 suppresses inflammatory response in rheumatoid arthritis model” (Scientific Reports, 2017):

How the values were obtained:
Test in all cases: biochemical
Parameters in all cases: KinomeScan competition binding panel (DiscoveRx), percent of control at 1 uM
Conditions in all cases: read-out: Percent Control
BMPR2 = BMPR2 (Homo sapiens, UniProt Q13873)
Description: (§1) In order to further confirm the binding mode, we then tested the compounds in the BTK wild-type (wt) and BTK C481S mutant with immunoblotting by looking at the BTK Y551 auto-phosphorylation. […] In addition, a covalent bond was preferred to form between the […] acrylamide and Cys-481 near the hinge binding area, which further confirmed its irreversible binding mode (Fig. 1d). We next investigated CHMFL-BTK-11′s selectivity profile in 456 kinases/mutants with KinomeScan^TM technology.

CAMK2B = CAMK2B (Homo sapiens, UniProt Q13554)
Description: as §1

CDC2L5 = biological target: T1, CDC2L5 (Homo sapiens, UniProt Q14004)
T1 construct: gene CDK13
Description: as §1

CHEK2 = CHEK2 (Homo sapiens, UniProt O96017)
Description: as §1

CSNK1E = CSNK1E (Homo sapiens, UniProt P49674)
Description: as §1

EGFR(E746-A750del) = EGFR(E746-A750del) (Homo sapiens, UniProt P00533, DEL746-750)
Description: as §1

FGFR2 = FGFR2 (Homo sapiens, UniProt P21802)
Description: as §1

FLT3(N841I) = FLT3(N841I) (Homo sapiens, UniProt P36888, N841I)
Description: as §1

FYN = FYN (Homo sapiens, UniProt P06241)
Description: as §1

HIPK2 = HIPK2 (Homo sapiens, UniProt Q9H2X6)
Description: as §1

HIPK4 = HIPK4 (Homo sapiens, UniProt Q8NE63)
Description: as §1

HUNK = HUNK (Homo sapiens, UniProt P57058)
Description: as §1

IGF1R = IGF1R (Homo sapiens, UniProt P08069)
Description: as §1

KIT(V559D,T670I) = KIT(V559D,T670I) (Homo sapiens, UniProt P10721, T670I/V559D)
Description: as §1

LCK = LCK (Homo sapiens, UniProt P06239)
Description: as §1

LTK = LTK (Homo sapiens, UniProt P29376)
Description: as §1

MEK3 = biological target: T2, MEK3 (Homo sapiens, UniProt P46734)
T2 construct: gene MAP2K3
Description: as §1

MLCK = biological target: T3, MLCK (Homo sapiens, UniProt Q32MK0)
T3 construct: gene MYLK3
Description: as §1

MST1R = MST1R (Homo sapiens, UniProt Q04912)
Description: as §1

MYO3B = MYO3B (Homo sapiens, UniProt Q8WXR4)
Description: as §1

NIK = biological target: T4, NIK (Homo sapiens, UniProt Q99558)
T4 construct: gene MAP3K14
Description: as §1

PAK1 = PAK1 (Homo sapiens, UniProt Q13153)
Description: as §1

PIK4CB = biological target: T5, PIK4CB (Homo sapiens, UniProt Q9UBF8)
T5 construct: gene PI4KB
Description: as §1

RIPK5 = biological target: T6, RIPK5 (Homo sapiens, UniProt Q6XUX3)
T6 construct: gene DSTYK
Description: as §1

SNRK = SNRK (Homo sapiens, UniProt Q9NRH2)
Description: as §1

IGF1R, sequence (P08069 whole entry): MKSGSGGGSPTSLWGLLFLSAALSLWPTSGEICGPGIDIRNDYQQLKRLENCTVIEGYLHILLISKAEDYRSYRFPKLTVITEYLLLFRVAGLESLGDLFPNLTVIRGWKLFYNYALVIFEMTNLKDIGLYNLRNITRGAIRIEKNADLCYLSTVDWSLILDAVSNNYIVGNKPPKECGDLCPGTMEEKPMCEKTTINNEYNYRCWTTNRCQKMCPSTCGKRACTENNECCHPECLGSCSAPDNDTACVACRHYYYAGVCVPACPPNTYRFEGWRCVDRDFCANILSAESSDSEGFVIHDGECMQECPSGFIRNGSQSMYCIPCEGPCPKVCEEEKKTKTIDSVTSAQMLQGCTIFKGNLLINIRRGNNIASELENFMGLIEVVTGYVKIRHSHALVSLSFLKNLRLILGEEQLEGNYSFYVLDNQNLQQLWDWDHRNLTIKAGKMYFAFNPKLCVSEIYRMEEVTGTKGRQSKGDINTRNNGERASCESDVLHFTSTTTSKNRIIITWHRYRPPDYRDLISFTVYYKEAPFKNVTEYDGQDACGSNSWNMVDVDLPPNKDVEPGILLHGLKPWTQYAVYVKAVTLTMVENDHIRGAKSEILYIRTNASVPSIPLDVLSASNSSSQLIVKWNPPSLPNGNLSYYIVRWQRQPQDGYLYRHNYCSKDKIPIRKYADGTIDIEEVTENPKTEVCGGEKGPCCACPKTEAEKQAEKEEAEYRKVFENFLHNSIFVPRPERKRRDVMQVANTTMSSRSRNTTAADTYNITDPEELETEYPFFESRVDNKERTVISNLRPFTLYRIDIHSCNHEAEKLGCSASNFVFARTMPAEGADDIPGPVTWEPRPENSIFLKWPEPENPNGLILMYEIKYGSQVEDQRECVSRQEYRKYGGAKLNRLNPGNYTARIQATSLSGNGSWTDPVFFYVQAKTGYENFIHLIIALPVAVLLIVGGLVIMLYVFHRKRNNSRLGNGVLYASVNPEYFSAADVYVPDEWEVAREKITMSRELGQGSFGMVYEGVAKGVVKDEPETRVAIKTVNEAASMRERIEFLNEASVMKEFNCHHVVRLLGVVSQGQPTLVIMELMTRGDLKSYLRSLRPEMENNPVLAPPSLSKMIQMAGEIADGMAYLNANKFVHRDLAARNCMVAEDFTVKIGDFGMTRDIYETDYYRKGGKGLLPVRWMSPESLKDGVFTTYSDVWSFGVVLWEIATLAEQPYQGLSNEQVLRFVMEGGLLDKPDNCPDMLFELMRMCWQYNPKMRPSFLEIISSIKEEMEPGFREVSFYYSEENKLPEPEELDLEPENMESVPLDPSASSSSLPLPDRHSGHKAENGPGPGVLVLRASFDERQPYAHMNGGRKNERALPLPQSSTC
HUNK, sequence (P57058 whole entry): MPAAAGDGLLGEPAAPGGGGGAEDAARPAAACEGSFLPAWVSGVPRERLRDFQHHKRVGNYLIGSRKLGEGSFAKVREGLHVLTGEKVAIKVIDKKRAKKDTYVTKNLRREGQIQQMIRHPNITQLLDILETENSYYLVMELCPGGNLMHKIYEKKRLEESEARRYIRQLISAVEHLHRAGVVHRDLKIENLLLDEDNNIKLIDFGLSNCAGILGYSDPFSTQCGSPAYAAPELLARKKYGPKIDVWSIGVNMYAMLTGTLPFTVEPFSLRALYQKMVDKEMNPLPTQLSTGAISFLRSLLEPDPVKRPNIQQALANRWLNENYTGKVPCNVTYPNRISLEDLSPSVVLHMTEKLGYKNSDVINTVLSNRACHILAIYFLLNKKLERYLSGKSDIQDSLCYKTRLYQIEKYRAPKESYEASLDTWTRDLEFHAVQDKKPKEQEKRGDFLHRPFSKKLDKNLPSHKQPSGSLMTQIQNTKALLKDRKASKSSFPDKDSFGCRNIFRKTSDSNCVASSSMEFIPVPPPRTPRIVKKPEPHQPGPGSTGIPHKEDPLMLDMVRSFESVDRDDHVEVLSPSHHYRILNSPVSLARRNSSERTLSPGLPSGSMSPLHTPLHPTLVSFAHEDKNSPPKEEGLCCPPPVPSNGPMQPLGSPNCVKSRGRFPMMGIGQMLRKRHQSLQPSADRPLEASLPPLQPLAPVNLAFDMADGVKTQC
LTK, sequence (P29376 whole entry): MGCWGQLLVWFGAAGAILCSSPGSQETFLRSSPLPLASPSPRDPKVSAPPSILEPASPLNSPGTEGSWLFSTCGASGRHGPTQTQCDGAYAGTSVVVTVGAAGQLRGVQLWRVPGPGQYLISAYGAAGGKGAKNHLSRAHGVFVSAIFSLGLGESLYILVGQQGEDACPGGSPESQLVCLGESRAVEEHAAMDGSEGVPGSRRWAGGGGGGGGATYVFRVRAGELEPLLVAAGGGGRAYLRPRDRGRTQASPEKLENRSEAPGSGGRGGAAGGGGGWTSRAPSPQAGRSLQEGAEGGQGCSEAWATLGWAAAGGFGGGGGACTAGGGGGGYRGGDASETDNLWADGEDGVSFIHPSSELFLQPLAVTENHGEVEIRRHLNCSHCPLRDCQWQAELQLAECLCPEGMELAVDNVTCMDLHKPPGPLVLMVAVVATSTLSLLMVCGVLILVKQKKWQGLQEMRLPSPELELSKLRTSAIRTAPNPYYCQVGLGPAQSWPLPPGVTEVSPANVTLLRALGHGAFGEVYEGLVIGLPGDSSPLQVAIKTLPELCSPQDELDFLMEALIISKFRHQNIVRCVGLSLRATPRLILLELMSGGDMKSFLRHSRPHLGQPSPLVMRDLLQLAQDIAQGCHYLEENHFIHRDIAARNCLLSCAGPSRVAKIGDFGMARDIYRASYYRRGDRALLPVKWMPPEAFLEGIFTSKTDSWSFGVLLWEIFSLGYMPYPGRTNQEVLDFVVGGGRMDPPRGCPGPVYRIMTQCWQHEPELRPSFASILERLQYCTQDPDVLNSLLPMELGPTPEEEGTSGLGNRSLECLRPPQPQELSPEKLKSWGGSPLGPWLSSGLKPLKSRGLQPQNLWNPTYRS
EGFR(E746-A750del), sequence (P00533 with tags, fused parts or gaps DEL746-750): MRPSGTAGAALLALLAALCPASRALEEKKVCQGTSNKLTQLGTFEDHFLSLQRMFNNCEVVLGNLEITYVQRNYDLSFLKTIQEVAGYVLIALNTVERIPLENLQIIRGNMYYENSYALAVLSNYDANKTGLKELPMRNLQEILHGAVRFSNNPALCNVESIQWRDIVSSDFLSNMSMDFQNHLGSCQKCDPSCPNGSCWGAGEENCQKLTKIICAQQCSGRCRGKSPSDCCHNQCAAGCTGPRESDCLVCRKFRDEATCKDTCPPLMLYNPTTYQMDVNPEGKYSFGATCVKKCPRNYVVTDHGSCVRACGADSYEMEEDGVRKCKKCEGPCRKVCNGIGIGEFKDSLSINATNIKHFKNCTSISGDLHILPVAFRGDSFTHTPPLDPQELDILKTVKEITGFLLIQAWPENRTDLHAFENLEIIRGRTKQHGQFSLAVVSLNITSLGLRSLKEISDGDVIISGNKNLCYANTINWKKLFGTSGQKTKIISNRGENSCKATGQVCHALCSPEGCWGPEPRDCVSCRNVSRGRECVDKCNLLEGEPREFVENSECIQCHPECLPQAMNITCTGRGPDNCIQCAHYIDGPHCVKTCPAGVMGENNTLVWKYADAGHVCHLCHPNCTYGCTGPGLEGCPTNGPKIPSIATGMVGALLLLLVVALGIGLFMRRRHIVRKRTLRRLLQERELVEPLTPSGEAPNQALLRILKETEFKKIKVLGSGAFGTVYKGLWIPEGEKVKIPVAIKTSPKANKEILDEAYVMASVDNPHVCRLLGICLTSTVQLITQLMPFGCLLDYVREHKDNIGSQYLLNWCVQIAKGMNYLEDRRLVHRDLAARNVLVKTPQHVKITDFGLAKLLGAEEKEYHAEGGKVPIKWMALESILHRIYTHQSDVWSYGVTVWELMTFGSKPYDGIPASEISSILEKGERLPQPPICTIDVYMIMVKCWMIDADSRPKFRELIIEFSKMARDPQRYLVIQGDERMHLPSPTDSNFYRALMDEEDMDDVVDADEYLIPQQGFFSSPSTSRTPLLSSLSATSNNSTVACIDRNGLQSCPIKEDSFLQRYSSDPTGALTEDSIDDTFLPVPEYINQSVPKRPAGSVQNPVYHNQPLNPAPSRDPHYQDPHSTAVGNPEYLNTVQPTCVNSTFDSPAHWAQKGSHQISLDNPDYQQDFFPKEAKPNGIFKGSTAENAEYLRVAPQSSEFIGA
PAK1, sequence (Q13153 whole entry): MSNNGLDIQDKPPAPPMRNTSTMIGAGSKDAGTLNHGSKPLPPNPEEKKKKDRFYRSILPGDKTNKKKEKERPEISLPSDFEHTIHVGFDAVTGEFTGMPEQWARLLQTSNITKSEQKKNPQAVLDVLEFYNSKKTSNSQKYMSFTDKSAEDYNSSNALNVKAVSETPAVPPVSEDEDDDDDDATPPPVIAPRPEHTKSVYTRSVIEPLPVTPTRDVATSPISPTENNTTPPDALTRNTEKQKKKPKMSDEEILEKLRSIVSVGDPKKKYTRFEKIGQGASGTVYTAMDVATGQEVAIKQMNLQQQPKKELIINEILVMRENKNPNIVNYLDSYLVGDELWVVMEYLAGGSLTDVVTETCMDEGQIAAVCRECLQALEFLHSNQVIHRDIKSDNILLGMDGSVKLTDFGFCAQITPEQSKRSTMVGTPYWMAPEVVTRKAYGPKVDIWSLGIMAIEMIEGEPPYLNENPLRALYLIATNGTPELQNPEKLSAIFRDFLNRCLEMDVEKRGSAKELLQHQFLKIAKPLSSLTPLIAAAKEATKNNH
T2 sequence (P46734 whole entry): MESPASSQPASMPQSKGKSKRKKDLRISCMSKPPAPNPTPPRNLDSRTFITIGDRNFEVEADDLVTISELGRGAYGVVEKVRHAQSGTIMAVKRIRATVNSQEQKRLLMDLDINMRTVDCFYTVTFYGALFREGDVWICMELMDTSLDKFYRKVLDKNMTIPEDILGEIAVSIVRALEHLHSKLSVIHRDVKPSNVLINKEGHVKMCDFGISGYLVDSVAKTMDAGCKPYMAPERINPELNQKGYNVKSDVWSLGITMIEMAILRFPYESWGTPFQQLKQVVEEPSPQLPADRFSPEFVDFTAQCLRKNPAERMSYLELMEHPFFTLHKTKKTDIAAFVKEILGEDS

`C=CC(=O)Nc1cc(-n2c(=O)ccc3cnc4ccc(-n5cccn5)cc4c32)ccc1C` [CHMFL-BTK-11] showed a remaining binding at 1 µM (BMPR2) of 100%, a remaining binding at 1 µM (CAMK2B) of 100% and a remaining binding at 1 µM (CDC2L5) of 98%. It also gave a remaining binding at 1 µM (CHEK2) of 100%, a remaining binding at 1 µM (CSNK1E) of 100% and a remaining binding at 1 µM (EGFR(E746-A750del)) of 90%. It also gave a remaining binding at 1 µM (FGFR2) of 88%, a remaining binding at 1 µM (FLT3(N841I)) of 100% and a remaining binding at 1 µM (FYN) of 99%. The remaining binding at 1 µM (HIPK2) was 96%, the remaining binding at 1 µM (HIPK4) was 94% and the remaining binding at 1 µM (HUNK) was 86%. The remaining binding at 1 µM (IGF1R) was 100%, the remaining binding at 1 µM (KIT(V559D,T670I)) was 99% and the remaining binding at 1 µM (LCK) was 100%. For the same compound, the remaining binding at 1 µM (LTK) was 100%, the remaining binding at 1 µM (MEK3) was 86% and the remaining binding at 1 µM (MLCK) was 98%. It also gave a remaining binding at 1 µM (MST1R) of 98%, a remaining binding at 1 µM (MYO3B) of 90% and a remaining binding at 1 µM (NIK) of 100%. For the same compound, the remaining binding at 1 µM (PAK1) was 100%, the remaining binding at 1 µM (PIK4CB) was 100% and the remaining binding at 1 µM (RIPK5) was 99%. The remaining binding at 1 µM (SNRK) was 94%.
